The target of experiment [1] is T1, hACSL5 (Homo sapiens (Human), UniProt Q9ULC5). In words: Human ACSL5 coupled enzyme Amplex Red assay. The experiment is classed as biochemical. As to conditions: read-out: hACSL5 IC50. The gist of the method:
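C-terminally His-tagged ACSL5 (33-683) from sf9 cells, 20 nM, was preincubated with compound in MOPS-NaOH pH 7.6 with MgCl2, peroxidase and acyl-CoA oxidase. Reactions were started with 25 μM oleate, 30 μM CoA, 1 mM ATP and 50 μM Amplex Red; fluorescence (535/590 nm) after 10 minutes at 25° C. was fitted to the Hill equation for IC50 and maximal inhibition.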
Target sequence in this assay (Q9ULC5 33-683): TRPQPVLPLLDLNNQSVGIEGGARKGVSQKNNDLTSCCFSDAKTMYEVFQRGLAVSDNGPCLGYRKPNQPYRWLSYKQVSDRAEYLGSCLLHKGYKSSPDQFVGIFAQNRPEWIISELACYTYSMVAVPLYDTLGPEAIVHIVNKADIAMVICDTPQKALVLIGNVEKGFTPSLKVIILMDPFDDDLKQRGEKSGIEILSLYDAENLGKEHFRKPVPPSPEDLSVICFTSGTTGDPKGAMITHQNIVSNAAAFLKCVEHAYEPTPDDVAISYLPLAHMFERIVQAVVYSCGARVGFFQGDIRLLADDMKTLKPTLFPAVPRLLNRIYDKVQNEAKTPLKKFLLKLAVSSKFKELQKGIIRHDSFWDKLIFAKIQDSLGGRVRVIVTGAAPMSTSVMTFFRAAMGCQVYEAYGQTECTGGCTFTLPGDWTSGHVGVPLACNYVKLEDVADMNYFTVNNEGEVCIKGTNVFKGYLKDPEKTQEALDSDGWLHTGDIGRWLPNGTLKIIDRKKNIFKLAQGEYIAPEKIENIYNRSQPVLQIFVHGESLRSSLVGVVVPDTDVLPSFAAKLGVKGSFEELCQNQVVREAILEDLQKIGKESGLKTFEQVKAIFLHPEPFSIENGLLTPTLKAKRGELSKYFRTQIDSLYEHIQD

Experiment [2] deals with T1, hACSL5. The experiment is described as follows: Cell-based assay (CBA) with B12FA in hACSL5-transfected Expi293F / FlpIn TRex293 cells. As to conditions: hACSL5-expressing cells. An excerpt: To assess the cell penetration and cellular activity of the compounds, a cell-based assay (CBA) was used to detect compound potency in living cells. The assay utilized the fluorescent fatty acid analogue B12FA, a boron-dipyrromethene (BODIPY™) labelled C12 fatty acid that can be incorporated into glycerophosphocholine in the cytoplasmic oil droplets of live cells. A concentration-dependent, red-shifted fluorescence can be induced by the formation of BODIPY™ excimers in the oil droplets.
Expi293F cells transfected with full length hACSL5 plasmid were selected using 1 mg/mL G418 culture medium and clones were selected by in vitro whole cell lysate (WCL) assay. The cell passage number used in the Expi293 CBA assay could not be used beyond 10 passages due to a decrease in hACSL5 expression. Therefore, a CBA using FlpIn TRex293 cells for inducible expression of hACSL5 was also established.
FlpIn TRex293 cells transfected with hACSL5 plasmid were selected in culture medium containing 15 µg/ml Blasticidin and 150 µg/ml Hygromycin. For cell-based assays, stable transfected hACSL5 cells were seeded onto a 96-well plate at 30-50k/well and incubated overnight. For the inducible system, […] tetracycline (or doxycycline) was added to culture medium of FlpIn TRex293 hACSL5 cells on the day before the assay to induce expression of hACSL5. The next day, growth media was replaced with culture medium without FBS and glucose (DMEM glucose (-), ThermoFisher) and cells were incubated for an hour before treating cells with serial diluted compounds containing 20 µM B12FA (ThermoFisher) for another 3 hours in the above medium. Cells were then fixed in 4% formaldehyde for 10 minutes and washed twice with PBS. The plate was read using the Cytation 5 imaging system with an excitation wavelength of 485 nm and observed emissions at 630 nm and 520 nm. The percentage of inhibition was calculated as: […]
wherein A is the ratio of emission intensities at 630 nm/520 nm in the absence of inhibitor (maximum ratio); B is the ratio of the intensities at those wavelengths in the presence of […] of the test compound or non-induced cells (minimum ratio); and X is the ratio of the intensities at a given compound concentration.
Concentration-response titration points for each compound tested were filled to the Hill equation yielding concentrations of half maximal inhibition […] and maximal inhibition values.
Target sequence in this assay (Q9ULC5 whole entry): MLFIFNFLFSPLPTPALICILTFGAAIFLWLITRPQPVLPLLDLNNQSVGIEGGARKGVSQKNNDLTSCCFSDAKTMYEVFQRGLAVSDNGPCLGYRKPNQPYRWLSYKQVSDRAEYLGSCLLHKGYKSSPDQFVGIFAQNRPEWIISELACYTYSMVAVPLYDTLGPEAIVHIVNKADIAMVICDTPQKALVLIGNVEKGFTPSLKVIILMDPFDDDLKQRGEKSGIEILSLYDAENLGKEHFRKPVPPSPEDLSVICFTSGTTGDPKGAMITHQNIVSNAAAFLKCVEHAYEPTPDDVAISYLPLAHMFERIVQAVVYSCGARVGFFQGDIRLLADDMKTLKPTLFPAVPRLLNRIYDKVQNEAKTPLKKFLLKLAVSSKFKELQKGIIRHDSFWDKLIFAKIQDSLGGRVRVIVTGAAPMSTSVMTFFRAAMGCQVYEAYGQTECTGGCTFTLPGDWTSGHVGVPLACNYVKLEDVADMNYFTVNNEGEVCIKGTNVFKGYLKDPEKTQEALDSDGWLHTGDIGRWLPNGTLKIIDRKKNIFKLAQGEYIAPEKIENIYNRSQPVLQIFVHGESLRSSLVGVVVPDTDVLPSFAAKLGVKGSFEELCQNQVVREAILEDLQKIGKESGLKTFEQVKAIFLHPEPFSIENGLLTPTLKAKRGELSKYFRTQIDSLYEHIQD

Bounds are passed on as bounds.

The term IC50 denotes the concentration that gives 50% inhibition.

Take `CC[C@@H](Oc1ccc(C(=O)NS(=O)(=O)c2ccc(OC3CCN(C)C(C)(C)C3)cc2)c(F)c1F)c1ccc(OCC2CC2)cn1` (stereo partly drawn) [4-((R)-1-(5-(cyclopropylmethoxy)pyridin-2-yl)propoxy)-2,3-difluoro-N-((4-((1,2,2-trimethylpiperidin-4-yl)oxy)phenyl)sulfonyl)benzamide]: the figures for the IC50 in experiment [1] and in experiment [2] were under 100 nM and 100 to 500 nM, respectively.
For the molecule `CC[C@@H](Oc1ccc(C(=O)NS(=O)(=O)c2ccc(OC3CCCN(C)C3)cc2)c(F)c1F)c1ccc(OCC2CC2)cn1` (stereo partly drawn) [4-((R)-1-(5-(cyclopropylmethoxy)pyridin-2-yl)propoxy)-2,3-difluoro-N-((4-((1-methylpiperidin-3-yl)oxy)phenyl)sulfonyl)benzamide], the IC50 in experiment [1] and in experiment [2] was under 100 nM throughout.
Turning to `CC[C@@H](Oc1ccc(C(=O)NS(=O)(=O)c2ccc(O[C@@H]3C[C@H]4C[C@@H]3CN4C)cc2)c(F)c1F)c1ccc(OCC2CC2)cn1` [4-((R)-1-(5-(cyclopropylmethoxy)pyridin-2-yl)propoxy)-2,3-difluoro-N-((4-(((1R,4R,5R)-2-methyl-2-azabicyclo[2.2.1]heptan-5-yl)oxy)phenyl)sulfonyl)benzamide], the values for the IC50 in experiment [1] and in experiment [2] were under 100 nM and over 500 nM, respectively.
Take `CC[C@@H](Oc1ccc(C(=O)NS(=O)(=O)c2ccc(O[C@@H]3CCN(C)C3)cc2)c(F)c1F)c1ccc(OCC2CC2)cn1` [4-((R)-1-(5-(cyclopropylmethoxy)pyridin-2-yl)propoxy)-2,3-difluoro-N-((4-(((R)-1-methylpyrrolidin-3-yl)oxy)phenyl)sulfonyl)benzamide]: the IC50 in experiment [1] is under 100 nM; in experiment [2], 100 to 500 nM.
For `CC[C@@H](Oc1ccc(C(=O)NS(=O)(=O)c2ccc(O[C@H]3CCN(C)C3)cc2)c(F)c1F)c1ccc(OCC2CC2)cn1` [4-((R)-1-(5-(cyclopropylmethoxy)pyridin-2-yl)propoxy)-2,3-difluoro-N-((4-(((S)-1-methylpyrrolidin-3-yl)oxy)phenyl)sulfonyl)benzamide], the IC50 in experiment [1] is under 100 nM; in experiment [2] it was 100 to 500 nM.
Take `CC[C@@H](Oc1ccc(C(=O)NS(=O)(=O)N2CC3CC2CC3OCCN2CCCC2)c(F)c1F)c1ccc(OCC2CC2)cn1` (stereo partly drawn) [4-((R)-1-(5-(cyclopropylmethoxy)pyridin-2-yl)propoxy)-2,3-difluoro-N-((5-(2-(pyrrolidin-1-yl)ethoxy)-2-azabicyclo[2.2.1]heptan-2-yl)sulfonyl)benzamide]: the figures for the IC50 in experiment [1] and in experiment [2] were under 100 nM and 100 to 500 nM, respectively.
Take `CC[C@@H](Oc1ccc(C(=O)NS(=O)(=O)N2CC3CC(C2)N3C)c(F)c1F)c1ccc(OCC2CC2)cn1` [4-((R)-1-(5-(cyclopropylmethoxy)pyridin-2-yl)propoxy)-2,3-difluoro-N-((6-methyl-3,6-diazabicyclo[3.1.1]heptan-3-yl)sulfonyl)benzamide]: the IC50 in experiment [1] and in experiment [2] was under 100 nM each time.
For `CC[C@@H](Oc1ccc(C(=O)NS(=O)(=O)N2CC3CCC(C2)N3C)c(F)c1F)c1ccc(OCC2CC2)cn1` [4-((R)-1-(5-(cyclopropylmethoxy)pyridin-2-yl)propoxy)-2,3-difluoro-N-((8-methyl-3,8-diazabicyclo[3.2.1]octan-3-yl)sulfonyl)benzamide], the IC50 in experiment [1] and in experiment [2] was under 100 nM each time.
With `CC[C@@H](Oc1ccc(C(=O)NS(=O)(=O)N2C[C@H]3C[C@@H]2CN3C)c(F)c1F)c1ccc(OCC2CC2)cn1` [4-((R)-1-(5-(cyclopropylmethoxy)pyridin-2-yl)propoxy)-2,3-difluoro-N-(((1R,4R)-5-methyl-2,5-diazabicyclo[2.2.1]heptan-2-yl)sulfonyl)benzamide], the IC50 in experiment [1] and in experiment [2] was 100 to 500 nM in each case.
On to `CC[C@@H](Oc1ccc(C(=O)NS(=O)(=O)N2C[C@@H]3C[C@H]2CN3C)c(F)c1F)c1ccc(OCC2CC2)cn1` [4-((R)-1-(5-(cyclopropylmethoxy)pyridin-2-yl)propoxy)-2,3-difluoro-N-(((1S,4S)-5-methyl-2,5-diazabicyclo[2.2.1]heptan-2-yl)sulfonyl)benzamide], for which the IC50 in experiment [1] and in experiment [2] was 100 to 500 nM throughout.
As for `CC[C@@H](Oc1ccc(C(=O)NS(=O)(=O)N2C[C@@H](C)N(C)[C@@H](C)C2)c(F)c1F)c1ccc(OCC2CC2)cn1` [4-((R)-1-(5-(cyclopropylmethoxy)pyridin-2-yl)propoxy)-2,3-difluoro-N-(((3S,5R)-3,4,5-trimethylpiperazin-1-yl)sulfonyl)benzamide], the IC50 in experiment [1] and in experiment [2] was under 100 nM throughout.
In the case of `CC[C@@H](Oc1ccc(C(=O)NS(=O)(=O)N2CCN(C)[C@H](C)C2)c(F)c1F)c1ccc(OCC2CC2)cn1` [4-((R)-1-(5-(cyclopropylmethoxy)pyridin-2-yl)propoxy)-N-(((R)-3,4-dimethylpiperazin-1-yl)sulfonyl)-2,3-difluorobenzamide], the IC50 in experiment [1] and in experiment [2] was under 100 nM throughout.
For `CC[C@@H](Oc1ccc(C(=O)NS(=O)(=O)N2CCN(C)[C@@H](C)C2)c(F)c1F)c1ccc(OCC2CC2)cn1` [4-((R)-1-(5-(cyclopropylmethoxy)pyridin-2-yl)propoxy)-N-(((S)-3,4-dimethylpiperazin-1-yl)sulfonyl)-2,3-difluorobenzamide], the IC50 in experiment [1] and in experiment [2] was under 100 nM throughout.
Take `CC[C@@H](Oc1ccc(C(=O)NS(=O)(=O)N2CCN(C)CC2(C)C)c(F)c1F)c1ccc(Oc2ccccn2)cn1` [(R)-2,3-difluoro-4-(1-(5-(pyridin-2-yloxy)pyridin-2-yl)propoxy)-N-((2,2,4-trimethylpiperazin-1-yl)sulfonyl)benzamide]: the IC50 in experiment [1] and in experiment [2] was under 100 nM each time.
As for `CC[C@@H](Oc1ccc(C(=O)NS(=O)(=O)C2CCN(C)CC2)c(F)c1F)c1ccc(Oc2ccccn2)cn1` [(R)-2,3-difluoro-N-((1-methylpiperidin-4-yl)sulfonyl)-4-(1-(5-(pyridin-2-yloxy)pyridin-2-yl)propoxy)benzamide], the IC50 in experiment [1] is under 100 nM; in experiment [2], 100 to 500 nM.
For `CC[C@@H](Oc1ccc(C(=O)NS(=O)(=O)N2CCN(CC(C)(C)F)CC2)c(F)c1F)c1ccc(Oc2ccccn2)cn1` [(R)-2,3-difluoro-N-((4-(2-fluoro-2-methylpropyl)piperazin-1-yl)sulfonyl)-4-(1-(5-(pyridin-2-yloxy)pyridin-2-yl)propoxy)benzamide], in that order: under 100 nM and under 100 nM.
For `CC[C@@H](Oc1ccc(C(=O)NS(=O)(=O)N2CCN(CC(C)(C)O)CC2)c(F)c1F)c1ccc(Oc2ccccn2)cn1` [(R)-2,3-difluoro-N-((4-(2-hydroxy-2-methylpropyl)piperazin-1-yl)sulfonyl)-4-(1-(5-(pyridin-2-yloxy)pyridin-2-yl)propoxy)benzamide], in that order: under 100 nM and under 100 nM.
As to `CC[C@@H](Oc1ccc(C(=O)NS(=O)(=O)N2CCC(OC3CCN(CCOC)CC3)CC2)c(F)c1F)c1ccc(Oc2ccccn2)cn1` [(R)-2,3-difluoro-N-((4-((1-(2-methoxyethyl)piperidin-4-yl)oxy)piperidin-1-yl)sulfonyl)-4-(1-(5-(pyridin-2-yloxy)pyridin-2-yl)propoxy)benzamide], the IC50 in experiment [1] and in experiment [2] was under 100 nM each time.
`CC[C@@H](Oc1ccc(C(=O)NS(=O)(=O)N2CCC(OC3CCN(C)CC3)CC2)c(F)c1F)c1cc(Oc2ccccn2)ccn1` [(R)-2,3-difluoro-N-((4-((1-methylpiperidin-4-yl)oxy)piperidin-1-yl)sulfonyl)-4-(1-(4-(pyridin-2-yloxy)pyridin-2-yl)propoxy)benzamide]: the IC50 in experiment [1] was under 100 nM; in experiment [2], 100 to 500 nM.
Consider `CC[C@@H](Oc1ccc(C(=O)NS(=O)(=O)N2CCC(OC3CCN(C)CC3)CC2)c(F)c1F)c1ccc(Oc2ccccn2)cn1` [(R)-2,3-difluoro-N-((4-((1-methylpiperidin-4-yl)oxy)piperidin-1-yl)sulfonyl)-4-(1-(5-(pyridin-2-yloxy)pyridin-2-yl)propoxy)benzamide], for which the IC50 in experiment [1] and in experiment [2] was under 100 nM in each case.
As to `CC[C@@H](Oc1ccc(C(=O)NS(=O)(=O)N2CCN(C)CC2)c(F)c1F)c1cc(Oc2ccccn2)ccn1` [(R)-2,3-difluoro-N-((4-methylpiperazin-1-yl)sulfonyl)-4-(1-(4-(pyridin-2-yloxy)pyridin-2-yl)propoxy)benzamide], the IC50 in experiment [1] was under 100 nM; in experiment [2] it was 100 to 500 nM.
